Source: ChEMBL document CHEMBL2028040, “Malaria Box”

What was measured:
[1] = system: Trypanosoma brucei rhodesiense; assay: MMV: Inhibition of Trypanosoma brucei rhodesiense (STIB 900) (HAT in vitro).; format: functional, organism-based
Trypanosoma cruzi = assay: MMV: Inhibition of Trypanosoma cruzi (Tulahuen C4 LacZ) (Chagas in vitro).; format: functional, organism-based
[2] = system: Trypanosoma brucei brucei; assay: MMV: Inhibition of Trypanosoma brucei brucei (Squib 427) (HAT in vitro).; format: functional, organism-based
[3] = MMV: Cytotoxicity against human fibroblasts (MRC-5) cells.; details: MRC-5 cells (human fibroblasts)
Plasmodium falciparum [4] = assay: MMV: Inhibition of Plasmodium falciparum 3D7 (EC50).; format: functional, organism-based
Plasmodium falciparum [5] = assay: MMV: Inhibition of Plasmodium falciparum 3D7 at 5uM compound concentration.; format: functional
Plasmodium falciparum [6] = assay: MMV: Inhibition of Plasmodium falciparum K1 (EC50).; format: functional, organism-based
Leishmania infantum = assay: MMV: Inhibition of Leishmania infantum (MHOM/MA/BE/67) in vitro.; format: functional, organism-based

With `Cc1ccc(-c2cc3c(nn2)-c2ccccc2C3=O)cc1` the IC50 [1] was 15 µM, the IC50 (Trypanosoma cruzi) was over 32 µM and the IC50 [2] was over 32 µM. The IC50 [3] was over 32 µM, the EC50 (Plasmodium falciparum [4]) was 0.0944 µM and the inhibition at 5 µM (Plasmodium falciparum [5]) was 99%. The EC50 (Plasmodium falciparum [6]) was 0.165 µM and the IC50 (Leishmania infantum) was over 32 µM.
`O=C1c2ccccc2-c2nnc(-c3ccc(Br)cc3)cc21` showed an IC50 [1] of over 32 µM, an IC50 (Trypanosoma cruzi) of over 32 µM and an IC50 [2] of over 32 µM. For the same molecule, the IC50 [3] was over 32 µM, the EC50 (Plasmodium falciparum [4]) was 1.07 µM and the inhibition at 5 µM (Plasmodium falciparum [5]) was 99%. The EC50 (Plasmodium falciparum [6]) was 0.798 µM and the IC50 (Leishmania infantum) was over 32 µM.
Work on `CCOC(=O)C1=C(C)N=c2sc(=Cc3cc(Cl)ccc3O)c(=O)n2C1c1ccc(OC)cc1` (stereo not given) yielded an IC50 [1] of 4.15 µM, an IC50 (Trypanosoma cruzi) of 14.1 µM and an IC50 [2] of 14.2 µM. It also gave an IC50 [3] of 16.6 µM, an EC50 (Plasmodium falciparum [4]) of 0.489 µM and an inhibition at 5 µM (Plasmodium falciparum [5]) of 97%. The EC50 (Plasmodium falciparum [6]) was 0.49 µM and the IC50 (Leishmania infantum) was 16.2 µM.
`CCOC(=O)c1cn(CC)c2cc(N(C)CCc3ccc(OC)c(OC)c3)c(F)cc2c1=O` gave an IC50 [1] of over 32 µM, an IC50 (Trypanosoma cruzi) of over 32 µM and an IC50 [2] of over 32 µM. It also gave an IC50 [3] of over 32 µM, an EC50 (Plasmodium falciparum [4]) of 0.205 µM and an inhibition at 5 µM (Plasmodium falciparum [5]) of 99%. The EC50 (Plasmodium falciparum [6]) was 0.436 µM and the IC50 (Leishmania infantum) was over 32 µM.
`O=C(CCl)NCCOc1ccc(Cl)cc1Cl` gave an IC50 [1] of 6.83 µM, an IC50 (Trypanosoma cruzi) of 19.1 µM and an IC50 [2] of 11.6 µM. It also gave an IC50 [3] of 16.2 µM, an EC50 (Plasmodium falciparum [4]) of 0.555 µM and an inhibition at 5 µM (Plasmodium falciparum [5]) of 94%. It also gave an EC50 (Plasmodium falciparum [6]) of 1 µM and an IC50 (Leishmania infantum) of 10.2 µM.
For `COc1ccc(C(=O)NC(c2ccc(Cl)cc2Cl)c2cc(Cl)c3cccnc3c2O)cc1` (stereo not given), the IC50 [1] was 4.09 µM, the IC50 (Trypanosoma cruzi) was 3.85 µM and the IC50 [2] was 3.94 µM. For the same molecule, the IC50 [3] was 7.79 µM, the EC50 (Plasmodium falciparum [4]) was 0.513 µM and the inhibition at 5 µM (Plasmodium falciparum [5]) was 96%. For the same molecule, the EC50 (Plasmodium falciparum [6]) was 0.525 µM and the IC50 (Leishmania infantum) was 4.76 µM.
Molecule `Nc1ccc(-c2nc3cc(Cc4ccc5[nH]c(-c6ccc(N)cc6)nc5c4)ccc3[nH]2)cc1` has an IC50 [1] of 2.27 µM, an IC50 (Trypanosoma cruzi) of 4.54 µM and an IC50 [2] of 1.89 µM. It also gave an IC50 [3] of 11.4 µM, an EC50 (Plasmodium falciparum [4]) of 1.42 µM and an inhibition at 5 µM (Plasmodium falciparum [5]) of 100%. It also gave an EC50 (Plasmodium falciparum [6]) of 1.29 µM and an IC50 (Leishmania infantum) of over 32 µM.
Molecule `OC(Cn1nnc2ccccc21)Cn1c2ccc(Br)cc2c2cc(Br)ccc21` (stereo not given) has an IC50 [1] of over 32 µM, an IC50 (Trypanosoma cruzi) of over 32 µM and an IC50 [2] of over 32 µM. The IC50 [3] was over 32 µM, the EC50 (Plasmodium falciparum [4]) was 1.26 µM and the inhibition at 5 µM (Plasmodium falciparum [5]) was 98%. For the same molecule, the EC50 (Plasmodium falciparum [6]) was 1.23 µM and the IC50 (Leishmania infantum) was over 32 µM.
For `CCCCNCC(O)(c1ccc(Cl)cc1)c1ccc(Cl)cc1`, the IC50 [1] was 3.86 µM, the IC50 (Trypanosoma cruzi) was 14.3 µM and the IC50 [2] was 3.27 µM. The IC50 [3] was over 32 µM, the EC50 (Plasmodium falciparum [4]) was 0.843 µM and the inhibition at 5 µM (Plasmodium falciparum [5]) was 97%. It also gave an EC50 (Plasmodium falciparum [6]) of 0.525 µM and an IC50 (Leishmania infantum) of 13.6 µM.
For `COc1cccc(C(=O)NC(c2ccc(C)cc2)c2cc(Cl)c3cccnc3c2O)c1` (stereo not given), the IC50 [1] was 4.06 µM, the IC50 (Trypanosoma cruzi) was 3.77 µM and the IC50 [2] was 3.49 µM. For the same molecule, the IC50 [3] was over 32 µM, the EC50 (Plasmodium falciparum [4]) was 0.393 µM and the inhibition at 5 µM (Plasmodium falciparum [5]) was 97%. The EC50 (Plasmodium falciparum [6]) was 0.527 µM and the IC50 (Leishmania infantum) was over 32 µM.
`CCOc1ccc(/C=C/c2nc(=O)c3ccccc3o2)cc1` showed an IC50 [1] of 30.5 µM, an IC50 (Trypanosoma cruzi) of 17.9 µM and an IC50 [2] of over 32 µM. It also gave an IC50 [3] of over 32 µM, an EC50 (Plasmodium falciparum [4]) of 0.56 µM and an inhibition at 5 µM (Plasmodium falciparum [5]) of 95%. For the same molecule, the EC50 (Plasmodium falciparum [6]) was 0.893 µM and the IC50 (Leishmania infantum) was over 32 µM.
`O=C(Nc1ccc(F)c(Cl)c1)Nc1ccc(Cl)c(Cl)c1` showed an IC50 [1] of 3.33 µM, an IC50 (Trypanosoma cruzi) of 3.7 µM and an IC50 [2] of 3.94 µM. For the same molecule, the IC50 [3] was 4.51 µM, the EC50 (Plasmodium falciparum [4]) was 2.06 µM and the inhibition at 5 µM (Plasmodium falciparum [5]) was 95%. For the same molecule, the EC50 (Plasmodium falciparum [6]) was 2.13 µM and the IC50 (Leishmania infantum) was 16.2 µM.
Work on `COc1ccc(CN2CCN(Cc3ccccc3)CC2)c(O)c1` yielded an IC50 [1] of over 32 µM, an IC50 (Trypanosoma cruzi) of over 32 µM and an IC50 [2] of over 32 µM. It also gave an IC50 [3] of over 32 µM, an EC50 (Plasmodium falciparum [4]) of 1.08 µM and an inhibition at 5 µM (Plasmodium falciparum [5]) of 96%. The EC50 (Plasmodium falciparum [6]) was 0.789 µM and the IC50 (Leishmania infantum) was over 32 µM.
Molecule `CCCCCCc1cc(O)c2c3c(c(=O)oc2c1)CCC(C)C3` (stereo not given) has an IC50 [1] of 4.21 µM, an IC50 (Trypanosoma cruzi) of over 32 µM and an IC50 [2] of 4.18 µM. It also gave an IC50 [3] of over 32 µM, an EC50 (Plasmodium falciparum [4]) of 0.534 µM and an inhibition at 5 µM (Plasmodium falciparum [5]) of 96%. It also gave an EC50 (Plasmodium falciparum [6]) of 0.467 µM and an IC50 (Leishmania infantum) of over 32 µM.
Molecule `c1ccc(Cn2c(N=Nc3c(Nc4ccccc4)ccc4ccccc34)nc3ccccc32)cc1` has an IC50 [1] of 0.217 µM, an IC50 (Trypanosoma cruzi) of 0.136 µM and an IC50 [2] of 0.88 µM. It also gave an IC50 [3] of 0.389 µM, an EC50 (Plasmodium falciparum [4]) of 0.0368 µM and an inhibition at 5 µM (Plasmodium falciparum [5]) of 96%. For the same molecule, the EC50 (Plasmodium falciparum [6]) was 0.048 µM and the IC50 (Leishmania infantum) was 3.01 µM.
